Consider 5 compounds from article PMC4858680, “A platinum-based hybrid drug design approach to circumvent acquired resistance to molecular targeted tyrosine kinase inhibitors” (Scientific Reports, 2016).

One data set has as its target T1, TIE1 (Homo sapiens, UniProt P35590).
T1 construct: purchased DiscoveRx (KINOMEscan service)
The class given is binding. Particulars: 10 μM.

The target in a further data set is P-gp (MDCKII–P-gp) (Homo sapiens, UniProt P08183). Particulars: 10 μM, mean of three experiments.
P-gp (MDCKII–P-gp), sequence (P08183 whole entry): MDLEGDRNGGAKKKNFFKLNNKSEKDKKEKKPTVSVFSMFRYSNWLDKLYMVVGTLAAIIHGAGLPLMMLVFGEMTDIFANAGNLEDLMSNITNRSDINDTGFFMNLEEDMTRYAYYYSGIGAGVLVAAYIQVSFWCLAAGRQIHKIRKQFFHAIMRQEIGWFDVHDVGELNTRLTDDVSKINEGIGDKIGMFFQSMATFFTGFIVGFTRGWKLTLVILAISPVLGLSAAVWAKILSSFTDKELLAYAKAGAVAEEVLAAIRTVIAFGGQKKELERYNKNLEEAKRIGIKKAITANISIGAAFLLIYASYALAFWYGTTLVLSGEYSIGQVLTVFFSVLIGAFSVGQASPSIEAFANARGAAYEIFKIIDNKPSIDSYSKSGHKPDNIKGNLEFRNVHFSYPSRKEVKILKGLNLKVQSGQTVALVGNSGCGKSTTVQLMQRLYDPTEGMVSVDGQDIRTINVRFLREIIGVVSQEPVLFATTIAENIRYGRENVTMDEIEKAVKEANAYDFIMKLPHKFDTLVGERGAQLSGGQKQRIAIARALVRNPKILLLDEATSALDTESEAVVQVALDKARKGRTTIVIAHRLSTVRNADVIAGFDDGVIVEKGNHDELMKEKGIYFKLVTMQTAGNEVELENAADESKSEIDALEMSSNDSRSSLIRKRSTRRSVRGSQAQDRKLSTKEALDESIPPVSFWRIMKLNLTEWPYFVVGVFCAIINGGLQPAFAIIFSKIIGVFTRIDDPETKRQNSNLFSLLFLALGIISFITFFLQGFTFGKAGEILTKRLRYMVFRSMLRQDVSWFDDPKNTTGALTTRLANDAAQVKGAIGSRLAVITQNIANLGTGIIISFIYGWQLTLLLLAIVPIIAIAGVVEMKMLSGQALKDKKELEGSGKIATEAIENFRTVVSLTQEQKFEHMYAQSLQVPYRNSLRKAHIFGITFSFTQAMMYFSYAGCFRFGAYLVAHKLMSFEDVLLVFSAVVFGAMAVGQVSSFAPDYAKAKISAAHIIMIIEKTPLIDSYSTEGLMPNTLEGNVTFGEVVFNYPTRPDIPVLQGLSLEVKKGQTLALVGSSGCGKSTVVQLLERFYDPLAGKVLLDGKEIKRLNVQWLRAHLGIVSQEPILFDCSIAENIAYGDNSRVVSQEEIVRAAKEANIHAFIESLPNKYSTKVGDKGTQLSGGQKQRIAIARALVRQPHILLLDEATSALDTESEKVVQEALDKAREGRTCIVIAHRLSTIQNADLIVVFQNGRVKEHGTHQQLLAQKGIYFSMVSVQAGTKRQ
Data set [1] concerns the target ABL1(E255K)-phosphorylated (Homo sapiens, UniProt P00519, E255K). The conditions noted are these: 10 μM.
The target in data set [2] is ABL1(E317I)-nonphosphorylated (Homo sapiens, UniProt P00519, F317I). The conditions noted are these: 10 μM.
In data set [3] the target is ABL1(F317L)-phosphorylated (Homo sapiens, UniProt P00519, F317L). The conditions noted are these: 10 μM.
In data set [4] the target is ABL1(Q252H)-nonphosphorylated (Homo sapiens, UniProt P00519, Q252H). The conditions noted are these: 10 μM.
Data set [5] concerns the target ABL1(Q252H)-phosphorylated (Homo sapiens, UniProt P00519, Q252H). The data set can be described thus: biochemical. Particulars: read-out: Percent control.
The target of a further data set is T2, FLT3(K663D) (Homo sapiens, UniProt P36888, K663Q).
T2 sequence (P36888 564-993 K663Q limits assumed): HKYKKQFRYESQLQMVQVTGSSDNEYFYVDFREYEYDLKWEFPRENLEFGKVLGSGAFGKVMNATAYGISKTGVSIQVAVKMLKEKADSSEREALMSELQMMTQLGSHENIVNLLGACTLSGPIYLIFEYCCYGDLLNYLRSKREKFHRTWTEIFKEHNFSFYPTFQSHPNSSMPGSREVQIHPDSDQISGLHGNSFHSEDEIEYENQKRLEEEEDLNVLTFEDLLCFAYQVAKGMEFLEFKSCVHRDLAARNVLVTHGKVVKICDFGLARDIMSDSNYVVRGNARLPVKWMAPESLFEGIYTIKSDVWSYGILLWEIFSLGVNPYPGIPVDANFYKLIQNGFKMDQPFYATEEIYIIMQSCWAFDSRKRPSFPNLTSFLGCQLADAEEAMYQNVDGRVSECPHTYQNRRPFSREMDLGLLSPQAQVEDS
The data set can be described thus: biochemical. The conditions noted are these: read-out: Percent control.

The target in another data set is RET(V804TL) (Homo sapiens, UniProt P07949, V804L). In words: biochemical. Particulars: read-out: Percent control.
RET(V804TL), sequence (P07949 29-1114 V804L): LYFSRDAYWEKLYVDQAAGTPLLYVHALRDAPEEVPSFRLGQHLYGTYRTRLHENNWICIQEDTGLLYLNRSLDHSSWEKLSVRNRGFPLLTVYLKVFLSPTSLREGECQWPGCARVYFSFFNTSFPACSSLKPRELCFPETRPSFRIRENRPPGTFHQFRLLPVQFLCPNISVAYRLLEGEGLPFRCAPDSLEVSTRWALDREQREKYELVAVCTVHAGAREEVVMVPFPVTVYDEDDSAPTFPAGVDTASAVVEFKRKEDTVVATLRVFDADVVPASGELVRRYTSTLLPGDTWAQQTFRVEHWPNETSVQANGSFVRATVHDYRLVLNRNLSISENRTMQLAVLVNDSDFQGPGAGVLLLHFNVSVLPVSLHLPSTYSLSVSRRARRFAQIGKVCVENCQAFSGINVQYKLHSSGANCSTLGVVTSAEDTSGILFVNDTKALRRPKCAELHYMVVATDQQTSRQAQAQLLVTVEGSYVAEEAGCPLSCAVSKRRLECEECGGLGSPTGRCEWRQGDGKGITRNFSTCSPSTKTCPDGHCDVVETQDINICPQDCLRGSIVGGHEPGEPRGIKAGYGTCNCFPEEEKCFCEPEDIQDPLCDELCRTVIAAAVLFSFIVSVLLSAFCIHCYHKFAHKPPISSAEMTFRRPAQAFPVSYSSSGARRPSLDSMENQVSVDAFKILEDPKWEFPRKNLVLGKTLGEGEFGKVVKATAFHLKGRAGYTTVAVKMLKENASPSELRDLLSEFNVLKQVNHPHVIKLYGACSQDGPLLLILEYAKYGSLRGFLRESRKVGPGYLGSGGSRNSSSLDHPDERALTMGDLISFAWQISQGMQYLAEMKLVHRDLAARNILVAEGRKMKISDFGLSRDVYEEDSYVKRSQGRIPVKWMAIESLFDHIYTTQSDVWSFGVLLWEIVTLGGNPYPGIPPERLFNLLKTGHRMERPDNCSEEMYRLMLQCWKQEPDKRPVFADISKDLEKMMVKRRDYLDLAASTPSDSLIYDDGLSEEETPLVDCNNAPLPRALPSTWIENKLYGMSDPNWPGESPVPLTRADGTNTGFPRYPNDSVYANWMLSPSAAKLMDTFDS
Another data set addresses EGFR (Homo sapiens, UniProt P00533). The data set can be described thus: biochemical. The conditions noted are these: read-out: Percent control.
The target of a further data set is T3, FLT3(D835Y) (Homo sapiens, UniProt P36888, D835Y).
T3 sequence (P36888 27-993 D835Y): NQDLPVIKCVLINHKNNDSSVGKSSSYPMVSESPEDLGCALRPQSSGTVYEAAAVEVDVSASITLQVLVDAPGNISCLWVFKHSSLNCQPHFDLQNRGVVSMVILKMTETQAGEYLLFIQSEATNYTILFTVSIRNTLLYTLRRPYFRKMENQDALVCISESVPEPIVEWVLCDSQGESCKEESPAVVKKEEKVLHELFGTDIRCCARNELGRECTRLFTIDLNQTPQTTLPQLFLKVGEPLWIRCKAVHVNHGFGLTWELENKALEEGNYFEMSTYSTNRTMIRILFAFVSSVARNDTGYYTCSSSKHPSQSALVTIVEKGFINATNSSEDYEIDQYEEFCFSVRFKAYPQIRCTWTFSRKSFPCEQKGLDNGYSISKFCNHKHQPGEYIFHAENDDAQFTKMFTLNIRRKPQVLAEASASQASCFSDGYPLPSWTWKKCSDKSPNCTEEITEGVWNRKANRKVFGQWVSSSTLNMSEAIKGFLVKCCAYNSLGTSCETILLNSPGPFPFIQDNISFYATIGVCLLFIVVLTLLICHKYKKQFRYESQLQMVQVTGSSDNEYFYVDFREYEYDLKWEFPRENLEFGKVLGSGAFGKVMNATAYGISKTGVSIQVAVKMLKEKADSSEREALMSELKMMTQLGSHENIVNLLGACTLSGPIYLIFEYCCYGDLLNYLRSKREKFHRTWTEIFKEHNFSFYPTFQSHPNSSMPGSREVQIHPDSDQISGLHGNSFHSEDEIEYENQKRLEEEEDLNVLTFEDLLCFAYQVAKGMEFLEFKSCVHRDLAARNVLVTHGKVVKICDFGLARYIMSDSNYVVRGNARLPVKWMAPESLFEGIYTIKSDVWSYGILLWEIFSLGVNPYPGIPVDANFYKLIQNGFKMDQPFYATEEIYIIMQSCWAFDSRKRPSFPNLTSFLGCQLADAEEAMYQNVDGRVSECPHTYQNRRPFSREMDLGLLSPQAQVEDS
The data set can be described thus: biochemical. Particulars: read-out: Percent control.

In another data set the target is SRC (Homo sapiens, UniProt P12931). The data set can be described thus: biochemical. Particulars: read-out: Percent control.

T1 sequence (P35590 22-1138): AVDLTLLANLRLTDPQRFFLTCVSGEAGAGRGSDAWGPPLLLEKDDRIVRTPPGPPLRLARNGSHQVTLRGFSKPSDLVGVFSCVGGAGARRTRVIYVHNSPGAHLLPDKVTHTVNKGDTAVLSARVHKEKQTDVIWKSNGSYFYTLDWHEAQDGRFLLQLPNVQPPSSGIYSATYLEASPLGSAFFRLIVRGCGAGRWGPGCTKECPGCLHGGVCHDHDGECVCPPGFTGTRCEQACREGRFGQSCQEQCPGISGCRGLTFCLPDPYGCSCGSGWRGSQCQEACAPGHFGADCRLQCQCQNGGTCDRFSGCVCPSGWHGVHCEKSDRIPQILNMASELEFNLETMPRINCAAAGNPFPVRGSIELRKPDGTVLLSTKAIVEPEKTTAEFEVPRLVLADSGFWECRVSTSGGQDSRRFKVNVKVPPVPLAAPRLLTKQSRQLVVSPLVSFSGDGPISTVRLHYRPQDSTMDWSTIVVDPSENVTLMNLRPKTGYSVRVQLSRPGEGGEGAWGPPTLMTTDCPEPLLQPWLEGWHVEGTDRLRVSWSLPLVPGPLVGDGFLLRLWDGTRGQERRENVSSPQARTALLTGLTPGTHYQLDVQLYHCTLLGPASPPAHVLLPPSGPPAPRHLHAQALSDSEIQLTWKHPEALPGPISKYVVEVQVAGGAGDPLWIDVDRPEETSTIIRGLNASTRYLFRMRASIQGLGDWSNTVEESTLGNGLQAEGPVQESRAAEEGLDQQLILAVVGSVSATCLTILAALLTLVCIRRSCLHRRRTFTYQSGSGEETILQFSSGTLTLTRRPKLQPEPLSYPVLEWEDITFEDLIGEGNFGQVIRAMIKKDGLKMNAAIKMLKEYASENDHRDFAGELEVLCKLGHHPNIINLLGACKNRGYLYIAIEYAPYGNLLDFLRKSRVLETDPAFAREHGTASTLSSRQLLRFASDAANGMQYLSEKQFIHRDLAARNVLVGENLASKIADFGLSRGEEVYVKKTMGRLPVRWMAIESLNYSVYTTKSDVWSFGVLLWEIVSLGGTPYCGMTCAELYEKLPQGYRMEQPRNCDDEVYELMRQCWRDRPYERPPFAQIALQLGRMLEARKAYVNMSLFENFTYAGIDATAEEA
EGFR, sequence (P00533 25-1210): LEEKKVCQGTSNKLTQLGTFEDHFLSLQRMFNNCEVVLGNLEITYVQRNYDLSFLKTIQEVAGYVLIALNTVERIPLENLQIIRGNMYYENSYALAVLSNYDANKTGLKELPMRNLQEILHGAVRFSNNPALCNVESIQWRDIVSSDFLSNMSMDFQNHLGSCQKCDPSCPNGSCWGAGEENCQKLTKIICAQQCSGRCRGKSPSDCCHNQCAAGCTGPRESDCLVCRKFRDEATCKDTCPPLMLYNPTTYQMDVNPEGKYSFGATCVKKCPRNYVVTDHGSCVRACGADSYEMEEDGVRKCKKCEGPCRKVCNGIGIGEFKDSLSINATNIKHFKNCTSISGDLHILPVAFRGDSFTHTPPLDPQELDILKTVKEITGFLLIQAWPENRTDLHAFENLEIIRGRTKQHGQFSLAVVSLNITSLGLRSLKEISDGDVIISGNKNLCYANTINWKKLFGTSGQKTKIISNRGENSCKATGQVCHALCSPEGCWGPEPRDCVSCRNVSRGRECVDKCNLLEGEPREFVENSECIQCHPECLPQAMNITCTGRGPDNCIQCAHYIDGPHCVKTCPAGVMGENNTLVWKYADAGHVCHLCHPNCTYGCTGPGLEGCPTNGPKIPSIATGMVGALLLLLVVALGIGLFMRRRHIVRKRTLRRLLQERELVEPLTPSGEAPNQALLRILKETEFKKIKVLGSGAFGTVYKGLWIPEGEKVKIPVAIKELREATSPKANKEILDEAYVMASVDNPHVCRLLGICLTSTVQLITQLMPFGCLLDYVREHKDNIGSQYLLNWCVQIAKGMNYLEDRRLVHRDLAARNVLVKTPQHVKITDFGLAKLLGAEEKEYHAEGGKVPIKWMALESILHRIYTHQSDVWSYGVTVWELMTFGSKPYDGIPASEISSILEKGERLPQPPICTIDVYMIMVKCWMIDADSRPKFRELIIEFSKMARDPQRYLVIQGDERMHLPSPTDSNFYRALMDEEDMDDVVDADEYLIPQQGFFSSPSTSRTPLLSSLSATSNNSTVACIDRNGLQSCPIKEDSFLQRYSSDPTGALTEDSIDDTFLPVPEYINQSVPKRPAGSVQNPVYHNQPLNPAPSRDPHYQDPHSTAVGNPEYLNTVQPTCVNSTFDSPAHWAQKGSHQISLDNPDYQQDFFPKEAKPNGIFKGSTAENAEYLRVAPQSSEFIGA

`Cc1ccc(NC(=O)c2ccc(CN3CCN(C)CC3)cc2)cc1Nc1nccc(-c2cccnc2)[n+]1[Pt-2]1([Cl])[NH2+]C2CCCCC2[NH2+]1` (stereo not shown) [1b, oxaliplatin-imatinib]: the Percent control at TIE1 worked out at 100%.

Turning to `C#Cc1cccc(Nc2c3cc(OCCOC)c(OCCOC)cc3nc[n+]2[Pt@SP2-2]([NH3+])([NH3+])[Cl])c1` [2a, cisplatin-erlotinib], on P-gp (MDCKII–P-gp), the “A to B transport (apparent permeability)” value is on record as 3.32 × 10^−6. Besides, the “B to A transport (apparent permeability)” value at P-gp (MDCKII–P-gp) is given as 2.82 × 10^−6. Besides, the Percent control in [1] is listed as 9.9%; in [2], 83%; in data set [3], 25%; in [4], 13%.

In the case of `C#Cc1cccc(Nc2ncnc3cc(OCCOC)c(OCCOC)cc23)c1` [Erlotinib], the values for the remaining activity at 10 µM (in data set [5]; at FLT3(K663D); on RET(V804TL)) were 0.6%, 11.5% and 100%, respectively.

`Cc1ccc(NC(=O)c2ccc(CN3CCN(C)CC3)cc2)cc1Nc1nccc(-c2cccnc2)n1` [Imatinib, reference compound]: at EGFR, the remaining activity at 10 µM stood at 100%.

As for `COc1cc2c(Nc3ccc(Br)cc3F)ncnc2cc1OCC1CCN(C)CC1` [Vandetanib, reference compound], the remaining activity at 10 µM at FLT3(D835Y) came out at 7.7%; on SRC, 0.7%.
